Source: US20260209249A1, “NOVEL TRICYCLIC COMPOUND AS KRAS G12D INHIBITOR, AND USE THEREOF” (SK Biopharmaceuticals Co., priority 2022, published 2026)

How the values were obtained:
[1] = target: T1, GDP-KRAS G12D mutant protein (Homo sapiens, UniProt P01116, G12D); assay: Differential scanning fluorimetry (DSF) binding affinity to GDP-KRAS G12D mutant protein; settings: DSF thermal shift, 10 μM compound, 4 μg KRAS protein
T1 construct: purchased Daegu Gyeongbuk Medical Innovation Foundation (DGMIF), made to order
Summary of the method: (§1)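 Thermal shift ΔTm was measured at 10 μM compound over a 25–99 °C ramp (0.05 °C/s), read at 580 nm ex/623 nm em with SYPRO Orange (2×). The protein (4 μg) was preincubated with compound for 30 min at room temperature, in 50 mM HEPES pH 7.5 for GppNHp-KRAS G12D or in kit buffer for GDP-KRAS G12D.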

[2] = target: T2, GppNHp-KRAS G12D mutant protein (Homo sapiens, UniProt P01116, G12D); assay: Differential scanning fluorimetry (DSF) binding affinity to GppNHp-KRAS G12D mutant protein; settings: DSF thermal shift, 10 μM compound, 4 μg KRAS protein, 50 mM HEPES (pH 7.5)
T2 construct: purchased Daegu Gyeongbuk Medical Innovation Foundation (DGMIF), made to order
Summary of the method: as §1

[3] = test system: KRAS G12D mutant pancreatic cancer cell line AsPC-1; assay: Cell viability assay using KRAS G12D mutant cells (AsPC-1, 3D culture, celltiter-glo 3D); assay type: cell-based; settings: Homo sapiens, ASPC1, 5th day after compound treatment
Description: Test Example 3: Cell Viability Assay Using KRAS G12D Mutant Cells
The KRAS G12D mutant pancreatic cancer cell line AsPC-1 was obtained from the Korean Cell Line Bank (KCLB) and maintained in 100-mm dishes or T75 (75 cm^2) flasks using RPM11640+10% fetal bovine serum (FBS)+1% Penicillin-Streptomycin medium. The cells were cultured at 37° C. with 5% CO2. The number of viable cells was counted using Countess (Invitrogen).
When AsPC-1 cells reached 85-100% confluence in the flask, the cells were harvested using 1× trypsin/EDTA solution, and seeded into a 96-well plate for 3D culture at 1000 cells/100 μL/well. The next day, the compounds were diluted ⅕ with DMSO from 10 μM or 50 μM to 0.0001 μM or 0.0006 μM and treated 1:1 (v/v) in the plate where the cells were seeded.
Cell culture was terminated on the 5th day after compound treatment, and cell viability at each concentration was measured using the celltiter-glo 3D cell viability assay kit.
Cell viability assays were normalized to 100% for the DMSO-treated group and expressed as a percentage of the number of viable cells when treated with the compound.
Cell viability %=(average RLU of group treated with test substance−average RLU of untreated group)/(average RLU of group treated with DMSO−average RLU of untreated group)×100
The data were modeled using GraphPad Prism 9 (GraphPad Software) by applying a nonlinear regression curve fit with a four-parameter sigmoidal dose-response curve to determine cell viability as a function of compound concentration. The 50% inhibitory concentration (IC50) corresponds to the concentration at which the curve intersects the midpoint of cell viability. The results of the inhibitory effect of the compounds according to one embodiment of the present application on the viability of KRAS G12D mutant cells are presented in Table 4.

[4] = test system: ERK phosphorylation (pERK) induced by KRAS G12D mutation; assay: Inhibitory activity against ERK phosphorylation (pERK) induced by KRAS G12D mutation, immunofluorescence assay in AsPC-1 cells; assay type: cell-based; settings: Homo sapiens, ASPC1, 3 h drug treatment, pERK (Thr202/Tyr204) signal normalized to DAPI
Summary of the method: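 AsPC-1 cells attached 16 h, then treated 3 h with 3-fold dilutions from 10 μM top. Fixed, permeabilized, immunostained for pERK (Thr202/Tyr204) with Alexa 488 secondary; high-content imaging, signal normalized to DAPI and to DMSO, IC50 from four-parameter fit.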

SMILES | GDP-KRAS G12D (ΔTmD, ° C.) [1] [°C] | GppNHp-KRAS G12D (ΔTmD, ° C.) [2] [°C] | IC50 [3] [nM] | IC50 [4] [nM]
C#Cc1c(F)ccc2cc(O)cc(-c3c(F)c4nc(OCC5(CN6CCC7(CC6)CC7(F)F)CC5)nc(N5C[C@H]6CC[C@@H](C5)N6)c4c4cc(C)oc34)c12 [Example 59, 4-(1-((1R,5S)-3,8-diazabicyclo[3.2.1]octan-3-yl)-3-((1-((1,1-difluoro-6-azaspiro[2.5]octan-6-yl)methyl)cyclopropyl)methoxy)-5-fluoro-8-methylfuro[3,2-n]quinazolin-6-yl)-5-ethynyl-6-fluoronaphthalen-2-ol] | 12.88 | 6.06 | 69 | 54
Cn1cc2c(n1)c(-c1cc(O)cc3ccc(F)c(F)c13)c(F)c1nc(OC[C@@]34CCCN3C/C(=C\F)C4)nc(N3C[C@H]4CC[C@@H](C3)N4)c12 [Example 86, 4-(9-((1R,5S)-3,8-diazabicyclo[3.2.1]octan-3-yl)-5-fluoro-7-(((S,Z)-2-(fluoromethylene)tetrahydro-1H-pyrrolizin-7a(5H)-yl)methoxy)-2-methyl-2H-pyrazolo[4,3-f]quinazolin-4-yl)-5,6-difluoronaphthalen-2-ol] | 13.07 | 10.69 | 48 | 29
C#Cc1c(F)ccc2cc(O)cc(-c3cc4nc(OCC5(CN6C[C@@H]7C[C@H]6CO7)CC5)nc(N5C[C@H]6CC[C@@H](C5)N6)c4n4ccnc34)c12 [Example 12, 4-(3-((1-(((1S,4S)-2-oxa-5-azabicyclo[2.2.1]heptan-5-yl)methyl)cyclopropyl)methoxy)-1-((1 R,5S)-3,8-diazabicyclo[3.2.1]octan-3-yl)imidazo[1′,2′:1,6]pyrido[3,2-d]pyrimidin-6-yl)-5-ethynyl-6-fluoronaphthalen-2-ol] | 9.61 | 2.65 | 975 | 1060
C#Cc1c(F)ccc2cc(O)cc(-c3cc4nc(OC[C@@]56CCCN5C[C@H](F)C6)nc(N5C[C@H]6CC[C@@H](C5)N6)c4c4cc(C)oc34)c12 [Example 42, 4-(1-((1R,5S)-3,8-diazabicyclo[3.2.1]octan-3-yl)-3-(((2R,7aS)-2-fluorotetrahydro-1H-pyrrolizin-7a(5H)-yl)methoxy)-8-methylfuro[3,2-f]quinazolin-6-yl)-5-ethynyl-6-fluoronaphthalen-2-ol] | 10.96 | 5.75 | 105 | 64
C#Cc1c(F)ccc2cc(O)cc(-c3c(F)c4nc(OC[C@@]56CCCN5C[C@H](F)C6)nc(N5CC6CCC(C5)N6)c4c4cc(C)oc34)c12 [Example 44, 4-(1-((1R,5S)-3,8-diazabicyclo[3.2.1]octan-3-yl)-5-fluoro-3-(((2R,7aS)-2-fluorotetrahydro-1H-pyrrolizin-7a(5H)-yl)methoxy)-8-methylfuro[3,2-n]quinazolin-6-yl)-5-ethynyl-6-fluoronaphthalen-2-ol] | 14.33 | 9.89 | 7 | 12
C#Cc1c(F)ccc2cc(O)cc(-c3cc4nc(OC[C@]56CC(=C)CN5C[C@@H](F)C6)nc(N5CC6CCC(C5)N6)c4n4ccnc34)c12 [Example 39, 4-(1-((1R,5S)-3,8-diazabicyclo[3.2.1]octan-8-yl)-3-(((2S,7aR)-2-fluoro-6-methylenetetrahydro-1H-pyrrolizin-7a(51H)-yl)methoxy)imidazo[1′,2′:1,6]pyrido[3,2-d]pyrimidin-6-yl)-5-ethynyl-6-fluoronaphthalen-2-ol] | 8.87 | 5.61 | 91 | 76
CCc1c(F)ccc2cc(O)cc(-c3c(F)c4nc(OC[C@@]56CCCN5C[C@H](F)C6)nc(N5C[C@H]6CC[C@@H](C5)N6)c4c4cn(C)nc34)c12 [Example 93, 4-(9-((1R,5S)-3,8-diazabicyclo[3.2.1]octan-3-yl)-5-fluoro-7-(((2R,7aS)-2-fluorotetrahydro-1H-pyrrolizin-7a(5H)-yl)methoxy)-2-methyl-2H-pyrazolo[4,3-n]quinazolin-4-yl)-5-ethyl-6-fluoronaphthalen-2-ol] | 14.20 | 8.72 | 38 | 16
C#Cc1c(F)ccc2cc(O)cc(-c3cc4nc(OCC5(CN6CCO[C@H](C)C6)CC5)nc(N5C[C@H]6CC[C@@H](C5)N6)c4n4ccnc34)c12 [Example 11, 4-(1-((1R,5S)-3,8-diazabicyclo[3.2.1]octan-3-yl)-3-((1-(((R)-2-methylmorpholino)methyl)cyclopropyl)methoxy)imidazo[1′,2′:1,6]pyrido[3,2-d]pyrimidin-6-yl)-5-ethynyl-6-fluoronaphthalen-2-ol] | 9.74 | 2.49 | 140 | 174
C#Cc1c(F)ccc2cc(O)cc(-c3cc4nc(OC[C@@]56CCCN5C/C(=C\F)C6)nc(N5[C@@H]6CC[C@H]5CNC6)c4n4ccnc34)c12 [Example 23, 4-(1-((1R,5S)-3,8-diazabicyclo[3.2.1]octan-8-yl)-3-(((S,Z)-2-(fluoromethylene)tetrahydro-1H-pyrrolizin-7a(5H)-yl)methoxy)imidazo[1′,2′:1,6]pyrido[3,2-d]pyrimidin-6-yl)-5-ethynyl-6-fluoronaphthalen-2-ol] | 9.90 | 6.94 | 24 | 25
C#Cc1c(F)ccc2cc(O)cc(-c3c(F)c4nc(OC[C@@]56CCCN5CC(=C(F)F)C6)nc(N5C[C@H]6CC[C@@H](C5)N6)c4c4cn(C)nc34)c12 [Example 90, 4-(9-((1R,5S)-3,8-diazabicyclo[3.2.1]octan-3-yl)-7-(((S)-2-(difluoromethylene)tetrahydro-1H-pyrrolizin-7a(5H)-yl)methoxy)-5-fluoro-2-methyl-2H-pyrazolo[4,3-f]quinazolin-4-yl)-5-ethynyl-6-fluoronaphthalen-2-ol] | 16.27 | 11.38 | 4 | 5
C#Cc1c(F)ccc2cc(N)cc(-c3cc4nc(OC[C@@]56CCCN5C[C@H](F)C6)nc(N5[C@@H]6CC[C@H]5CNC6)c4n4ccnc34)c12 [Example 14, 4-(1-((1R,5S)-3,8-diazabicyclo[3.2.1]octan-8-yl)-3-(((2R,7aS)-2-fluorotetrahydro-1H-pyrrolizin-7a(5H)-yl)methoxy)imidazo[1′,2′:1,6]pyrido[3,2-d]pyrimidin-6-yl)-5-ethynyl-6-fluoronaphthalen-2-amine] | 7.98 | 4.73 | 53 | 75
C#Cc1c(F)ccc2cc(O)cc(-c3c(F)c4nc(OCC5(CN6CCC7(CC6)CC7(F)F)CC5)nc(N5C[C@H]6CC[C@@H](C5)N6)c4c4cn(C)nc34)c12 [Example 87, 4-(9-((1R,5S)-3,8-diazabicyclo[3.2.1]octan-3-yl)-7-((1-((1,1-difluoro-6-azaspiro[2.5]octan-6-yl)methyl)cyclopropyl)methoxy)-5-fluoro-2-methyl-2H-pyrazolo[4,3-f]quinazolin-4-yl)-5-ethynyl-6-fluoronaphthalen-2-ol] | 14.94 | 8.86 | 11 | 4
C#Cc1c(F)ccc2cc(N)cc(-c3cc4nc(OC[C@@]56CCCN5C/C(=C\F)C6)nc(N5[C@@H]6CC[C@H]5CNC6)c4n4ccnc34)c12 [Example 38, 4-(1-((1R,5S)-3,8-diazabicyclo[3.2.1]octan-8-yl)-3-(((S,Z)-2-(fluoromethylene)tetrahydro-1H-pyrrolizin-7a(5H)-yl)methoxy)imidazo[1′,2′:1,6]pyrido[3,2-d]pyrimidin-6-yl)-5-ethynyl-6-fluoronaphthalen-2-amine] | 9.61 | 6.65 | 12 | 15
